Experimental data: patent US10543183B2, “Treatment and diagnosis of melanoma” (The Rockefeller University, priority 2012, dated 2020)
Where a name gives a salt, the structure may show the parent alone.

Assays:
[1] = test system: MeWo, SK-Mel-2, SK-Mel-334.2, SK-Mel-239 human melanoma cells; assay: subcutaneous human melanoma tumor growth in immunocompromised mice; assay type: in vivo, mouse
MeWo melanoma cells = assay: orthotopic metastasis assay after tumor excision; assay type: in vivo, mouse; details: oral, chow 100 mg/kg for 1 month
Protocol: To determine the effect of GW3965 treatment on lung colonization by melanoma cells dissociated from an orthotopic site, 1×10^6 MeWo cells expressing a luciferase reporter were subcutaneously injected into both lower flanks of NOD Scid mice. Upon the formation of tumors measuring ˜300 mm^3 in volume, the tumors were excised and the mice were randomly assigned to a control diet or a GW3965-supplemented diet (100 mg/kg) treatment. One month after tumor excision, the lungs were extracted and lung colonization was measured by ex vivo bioluminescence imaging. To histologically confirm the extent of melanoma lung colonization, lungs were then fixed in 4% PFA overnight, paraffin-embedded, section into […] increments and stained for human vimentin (VP-V684, Vector Laboratories).

[2] = test system: Tyr::CreER; B-RafV600E/+; Ptenlox/+ and Ptenlox/lox mice; assay: genetically-initiated model of melanoma progression; assay type: in vivo, mouse
Protocol: The Tyr::CreER; B-Raf^V600E/+; Pten^lox/+/Tyr::CreER; B-Raf^V600E/+; Pten^lox/lox conditional model of melanoma progression was previously established and characterized by Dankort et al. (2009). Briefly, melanoma in these mice was induced at 6 weeks of age by intraperitoneally injecting 4-HT (H6278, 70% isomer, Sigma-Aldrich, St Louis, Mo.) at 25 mg/kg administered in peanut oil on three consecutive days. The 4-HT stock solution was prepared by dissolving it in 100% EtOH at 50 mg/mL by heating at 45° C. for 5 min and mixing. Once dissolved, the stock 4-HT solution was then diluted by 10-fold in peanut oil, yielding a 5 mg/mL 4-HT working solution that was then injected into mice. After the first 4-HT injection, mice were blindedly assigned to receive either a control diet or a diet supplemented with GW3965 (100 mg/kg). Mice were examined three times a week for the presence and progression of melanoma lesions. At day 35, dorsal skin samples were harvested from control-treated and GW3965-treated mice, fixed in 4% PFA and photographed at 10×. The percentage of pigmented melanoma lesion area out of the total skin area was quantified using ImageJ. For survival analyses, mice were monitored daily for melanoma progression and euthanized according to a standard body condition score, taking into account initial signs of moribund state and discomfort associated with the progression of melanoma burden. Post-mortem, the lungs, brains, and salivary glands were harvested and examined for the presence of macroscopic melanoma lesions.

[3] = test system: B-RafV600E/+; Pten−/−; CDKN2A−/− primary mouse melanoma cells; assay: B-RafV600E/+; Pten−/−; CDKN2A−/− melanoma cells in syngeneic mice; assay type: in vivo
Protocol: Melanoma cells used for in vivo metastasis assays were transduced with a stably expressed retroviral construct encoding a luciferase reporter gene (Ponomarev et al., 2004), allowing us to monitor the in vivo progression of melanoma cells by bioluminescence imaging. The following numbers of melanoma cells, resuspended in 100 μL of PBS, were injected intravenously via the tail-vein: 4×10^4 MeWo cells, 2.5×10^5 HT-144 cells, 2×10^5 SK-Mel-334.2 cells, 5×10^4B 16F10 cells, and 1×10^5YUMM cells. The MeWo, HT-144, and SK-Mel-334.2 cells were injected into 6-8 week-old sex-matched NOD scid mice, while the B16F10 and YUMM cells were injected into 6-8 week-old sex-matched C57BL/6 mice. […] To assess the effect of GW3965 treatment on brain metastasis, 1×10^5 MeWo brain-metastatic derivatives were injected intracardially into athymic nude mice. Immediately following injection, mice were randomly assigned to a control diet or GW3965-supplemented diet (100 mg/kg). To determine whether oral delivery of GW3965 can inhibit the progression of incipient metastasis, NOD Scid mice were intravenously injected with 4×10^4MeWo cells and the cells were allowed to colonize the lungs for 42 days, after which mice were blindedly assigned to a control diet or a GW3965-supplemented diet (100 mg/kg) treatment.

[4] = test system: MDA-468 human breast cancer cells; assay: MDA-468 breast cancer tumor growth in mammary fat pads; assay type: in vivo, mouse; details: diet 75 mg/kg/day
Protocol: The mice were assigned to a control diet treatment or a GW3965-supplemented diet treatment (75 mg/kg/day) two days prior to injection of the cancer cells.

[5] = test system: endothelial cells (HUVEC); assay: endothelial migration and chemotaxis assays; assay type: cell-based, human; details: cancer cell-free system
Protocol: Serum-starved HUVEC's were pulsed with Cell Tracker Red CMTPX dye for 45 minutes and seeded into HTS Fluoroblock trans-well inserts at a concentration of 1×10^5 HUVEC's in 0.5 mL starvation media per each insert. The assay was allowed to proceed for 16-18 hours at 37° C., and the inserts were processed and analyzed as described above (See Matrigel Invasion Assay).
HUVEC's were serum-starved in 0.2% FBS EGM-2 media for 16 hours and labeled with Cell Tracker Red CMTPX dye for 45 minutes. Meanwhile, the indicated amounts (1-5 μg) of recombinant human ApoE3 or BSA were mixed with 250 μL of matrigel (356231, BD Biosciences) and allowed to solidify at the bottom of a 24-well plate for 30 min. 250 μL of HUVEC EGM-2 media containing 0.2% FBS was then added to each matrigel-coated well, and […] HTS Fluoroblock inserts were fitted into each well. 1×10^5 HUVEC's, resuspended in 0.5 mL of starvation media, were seeded into each insert and allowed to migrate along the matrigel gradient for 16-18 hours at 37° C. Upon completion of the assay, the inserts were mounted on slides and analyzed as described above (See Matrigel Invasion Assay).

Molecule	overall survival time of tumor-bearing mice ([1]; B16F10, MeWo, SK-Mel-334.2 tumors, chow 100 mg/kg)	suppression of growth of SK-Mel-239 vemurafenib-resistant line ([1]; diet 100 mg/kg) [%]	survival of mice bearing vemurafenib-resistant melanoma burden ([1]; diet 100 mg/kg)	tumor growth inhibition, MeWo ([1]; oral administration) [%]	tumor growth inhibition, SK-Mel-2 ([1]; oral administration) [%]	tumor growth inhibition, SK-Mel-334.2 ([1]; oral administration) [%]	growth of in vivo-derived DTIC-resistant MeWo tumors ([1]; oral, diet 100 mg/kg)	inhibition of lung colonization by disseminated melanoma cells post-tumor excision (MeWo melanoma cells) [fold]	number of lymphatic metastases detected post-mortem ([2]; Ptenlox/lox mice, chow 100 mg/kg)	tumor progression ([2]; oral, diet 100 mg/kg after melanoma initiation)	overall survival times ([2]; oral, diet 100 mg/kg, Ptenlox/+ and Ptenlox/lox mice)	tumor growth ([3]; chow 100 mg/kg)	lung metastasis ([3]; diet 100 mg/kg)	overall survival ([3]; diet 100 mg/kg)	breast cancer tumor size in vivo [4]	endothelial migration in trans-well and gradient-based chemotactic assay [5]
O=C(O)Cc1cccc(OCCCN(Cc2cccc(C(F)(F)F)c2Cl)CC(c2ccccc2)c2ccccc2)c1 [GW3965 2, 3-[3-[N-(2-Chloro-3-trifluoromethylbenzyl)-(2,2-diphenylethyl)amino]propyloxy] phenylacetic acid hydrochloride]	substantially prolonged	72	significantly prolonged	70	49	73	strongly inhibited	17	decrease	attenuated	significantly extended	robustly inhibited	robustly inhibited	extended	significant reduction	
recombinant ApoE3: recombinant human ApoE3 (4696, BioVision)																sufficient to inhibit
